Test results taken from US10981882B1, “Compound for inhibiting IDO, a manufacturing method and a use thereof” (Shanghai JOYU Pharmatech Ltd., priority 2017, dated 2021).

Key:
[1] = target: IDO protease in HEK293 cell (Homo sapiens (Human), UniProt P14902); assay: Inhibitory activity of IDO protease in HEK293 cell transfected with human IDO gene; type: cell-based; conditions: for inhibiting effect on IDO protease: result in words, tested by the above assay; for IC50: HEK293 cells transfected with pcDNA3.1(+)-hIDO, compounds incubated for 5 hr
Description: 2. Determination of the Inhibitory Activity of IDO Protease in HEK293 Cell
HEK293 cells were seeded in a 96-well microplate at a density of 2.5×10^4 cells/well and were maintained in DMEM (containing 10% fetal bovine serum, 50 U/mL penicillin and […] streptomycin) at 37° C. 24 hours later, HEK-293 cells were transfected with pcDNA3.1 (+)-hIDO vector carrying human IDO gene using Lipofectamine 2000. After 24 hr, the tested compounds were added to the cells and incubated for 5 hr. 140 μL of supernatant was transferred to a well in a new 96-well microplate. 10 μL of 30% (w/v) trichloroacetic acid was added to each sample-containing well and reaction was incubated at 65° C. for 15 min. The reaction mixture was centrifuged at 13000×g for 10 min. The supernatant was mixed with p-(dimethylamino)benzaldehydein acetic acid in the same volume. The yellow pigment derived from kynurenine was measured for absorbance (D) value at 480 nm using a microplate reader.
The inhibitory activity of compounds prepared in Example 1-19 against the IDO protease in HEK293 cell was determined with the above test.

[2] = target: human IDO1 protease (Homo sapiens (Human), UniProt P14902); assay: Inhibitory activity against human IDO1 protease (recombinant enzyme, kynurenine absorbance at 480 nm); type: biochemical; conditions: recombinant human IDO1, L-Tryptophan substrate, 30 min at 37° C.
Description: The inhibitory activity of extracorporal human IDO1 protease was tested through the following method. The inhibition effect of compounds of the present invention against the human IDO1 protease was determined through the method.
(1) Preparation of Human Recombinant IDO1 Protease
BL21 E. Coli were transformed with a correct sequences PET28a-hIDO1 vector. A single colony was inoculated in Luria-Bertani (LB) medium at 37° C. Bacterial cells were then collected through centrifugation. The cell pellets were sonicated, then centrifuged at 4° C. The supernatant was then collected and purified by Ni chromatography to give pure rhIDO1 protease.
(2) The Test of the Compounds
IDO1 enzymatic assay was carried out in a reaction mixture (500 μL/well) containing 50 mmol/L potassium phosphate buffer, 400 μg/mL catalase, 40 mmol/L ascorbic acid, 20 μmol/mL methylene blue, […] L-Tryptophan and the test compound. After the mixture was incubated for 3˜5 min at 37° C., recombinant human IDO1 was added to. The mixture was incubated for another 30 min at 37° C. and the reaction was stopped by adding 200 μL of 30% (w/v) trichloroacetic acid. After heating in a water bath pot at 65° C. for 15 min and centrifugation at 13800×g for 10 min. 100 μL of supernatant was transferred into a well of a 96-well microplate and mixed with the same volume of 2% (w/v) p-(dimethylamino)benzaldehyde in acetic acid. […]. When the color of the mixture became yellow, the mixture was measured for absorbance (D) value at 480 nm using microplate reader.
The inhibitory activity of compounds of the present invention against the human IDO1 protease was determined with the above test.

human IDO1 protease, sequence (P14902 whole entry): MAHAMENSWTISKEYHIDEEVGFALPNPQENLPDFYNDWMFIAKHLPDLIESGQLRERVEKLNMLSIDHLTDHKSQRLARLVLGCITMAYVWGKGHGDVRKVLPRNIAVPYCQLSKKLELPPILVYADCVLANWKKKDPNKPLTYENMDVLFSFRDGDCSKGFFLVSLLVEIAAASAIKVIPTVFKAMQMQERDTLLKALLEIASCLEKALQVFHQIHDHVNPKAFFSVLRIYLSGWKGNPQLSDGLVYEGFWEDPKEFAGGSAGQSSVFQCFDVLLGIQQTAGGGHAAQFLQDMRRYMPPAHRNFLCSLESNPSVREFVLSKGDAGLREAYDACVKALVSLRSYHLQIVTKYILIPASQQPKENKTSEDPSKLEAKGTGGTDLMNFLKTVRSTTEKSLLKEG
IDO protease in HEK293 cell, sequence (P14902 whole entry): as above

NS(=O)(=O)NCCC1CCCC(CCNc2nonc2C(=NO)Nc2ccc(F)c(Br)c2)C1 (centres unmarked) [Compound 16]
inhibiting effect on IDO protease [1]: showed the inhibiting effect

NS(=O)(=O)NC1CCC(CNc2nonc2C(=NO)Nc2ccc(F)c(Br)c2)C1 (centres unmarked) [Compound 19]
inhibiting effect on IDO protease [1]: showed the inhibiting effect

NS(=O)(=O)NC1CCC(Nc2nonc2/C(=N/O)Nc2ccc(F)c(Br)c2)CC1 (centres unmarked) [Example 17, N-(3-bromo-4-fluorophenyl)-N′-hydroxy-4-((4-(sulfamoylamino)cyclohexyl)amino)-1,2,5-oxadiazole-3-carboximidamide]
IC50 [2]: 0.015 µM | IC50 [1]: 0.01 µM

NS(=O)(=O)N[C@H]1CC[C@H](CNc2nonc2C(=NO)Nc2ccc(F)c(Br)c2)CC1 [Example 3, Trans-N-(3-bromo-4-fluorophenyl)-N′-hydroxy-4-(((4-(sulfamoylamino)cyclohexyl)methyl)amino)-1,2,5-oxadiazole-3-carboximidamide]
IC50 [2]: 0.038 µM | IC50 [1]: 0.013 µM

NS(=O)(=O)NCCC1CCC(CNc2nonc2C(=NO)Nc2ccc(F)c(Br)c2)CC1 (centres unmarked) [Example 7, N-(3-bromo-4-fluorophenyl)-N′-hydroxy-4-(((4-(2-(sulfamoylamino)ethyl)cyclohexyl)methyl)amino)-1,2,5-oxadiazole-3-carboximidamide]
IC50 [2]: 0.074 µM | IC50 [1]: 0.021 µM

N=C(Nc1ccc(F)c(Br)c1)c1nonc1NCC1CCCC(CCNS(N)(=O)=O)C1 (centres unmarked) [Compound 15]
inhibiting effect on IDO protease [1]: showed the inhibiting effect

NS(=O)(=O)NCC1CCC(CCNc2nonc2C(=NO)Nc2ccc(F)c(Br)c2)CC1 (centres unmarked) [Example 6, N-(3-bromo-4-fluorophenyl)-N′-hydroxy-4-((2-(4-((sulfamoylamino)methyl)cyclohexyl)ethyl)amino)-1,2,5-oxadiazole-3-carboximidamide]
IC50 [2]: 0.048 µM | IC50 [1]: 0.039 µM

N=C(Nc1ccc(F)c(Br)c1)c1nonc1NCCC1CCCC(CNS(N)(=O)=O)C1 (centres unmarked) [Compound 14]
inhibiting effect on IDO protease [1]: showed the inhibiting effect

NS(=O)(=O)NCC[C@H]1CC[C@H](Nc2nonc2C(=NO)Nc2ccc(F)c(Br)c2)CC1 [Example 2, trans-N-(3-bromo-4-fluorophenyl)-N′-hydroxy-4-((4-(2-(sulfamoylamino)ethyl)cyclohexyl)amino)-1,2,5-oxadiazole-3-carboximidamide]
IC50 [2]: 0.046 µM | IC50 [1]: 0.036 µM

NS(=O)(=O)N[C@H]1CC[C@@H](Nc2nonc2C(=NO)Nc2ccc(F)c(Br)c2)CC1 [Example 19, cis-N-(3-bromo-4-fluorophenyl)-N′-hydroxy-4-(((1s,4s)-4-(sulfamoylamino)cyclohexyl)amino)-1,2,5-oxadiazole-3-carboximidamide]
IC50 [2]: 0.012 µM | IC50 [1]: 0.005 µM

NS(=O)(=O)NC[C@H]1CC[C@H](Nc2nonc2C(=NO)Nc2ccc(F)c(Br)c2)CC1 [Example 1, trans-N-(3-bromo-4-fluorophenyl)-N′-hydroxy-4-((4-((sulfamoylamino)methyl)cyclohexyl)amino)-1,2,5-oxadiazole-3-carboximidamide]
IC50 [2]: 0.016 µM | IC50 [1]: 0.008 µM

NS(=O)(=O)NCC1CCCC(Nc2nonc2C(=NO)Nc2ccc(F)c(Br)c2)C1 (centres unmarked) [Example 9, N-(3-bromo-4-fluorophenyl)-N′-hydroxy-4-((3-((sulfamoylamino)methyl)cyclohexyl)amino)-1,2,5-oxadiazole-3-carboximidamide]
IC50 [2]: 0.064 µM | IC50 [1]: 0.027 µM

NS(=O)(=O)NC1CCC(CCNc2nonc2C(=NO)Nc2ccc(F)c(Br)c2)CC1 (centres unmarked) [Example 4, N-(3-bromo-4-fluorophenyl)-N′-hydroxy-4-((2-(4-(sulfamoylamino)cyclohexyl)ethyl)amino)-1,2,5-oxadiazole-3-carboximidamide]
IC50 [2]: 0.022 µM | IC50 [1]: 0.036 µM

NS(=O)(=O)NC1CCCC(CCNc2nonc2C(=NO)Nc2ccc(F)c(Br)c2)C1 (centres unmarked) [Example 12, N-(3-bromo-4-fluorophenyl)-N′-hydroxy-4-((2-(3-(sulfamoylamino)cyclohexyl)ethyl)amino)-1,2,5-oxadiazole-3-carboximidamide]
IC50 [2]: 0.06 µM | IC50 [1]: 0.023 µM

NS(=O)(=O)NC1CCCC(CNc2nonc2C(=NO)Nc2ccc(F)c(Br)c2)C1 (centres unmarked) [Example 11, N-(3-bromo-4-fluorophenyl)-N′-hydroxy-4-(((3-(sulfamoylamino)cyclohexyl)methyl)amino)-1,2,5-oxadiazole-3-carboximidamide]
IC50 [2]: 0.043 µM | IC50 [1]: 0.018 µM

NS(=O)(=O)NCCC1CCC(CCNc2nonc2C(=NO)Nc2ccc(F)c(Br)c2)CC1 (centres unmarked) [Example 8, N-(3-bromo-4-fluorophenyl)-N′-hydroxy-4-((2-(4-(2-(sulfamoylamino)ethyl)cyclohexyl)ethyl)amino)-1,2,5-oxadiazole-3-carboximidamide]
IC50 [2]: 0.051 µM | IC50 [1]: 0.045 µM

NS(=O)(=O)NCCC1CCCC(Nc2nonc2C(=NO)Nc2ccc(F)c(Br)c2)C1 (centres unmarked) [Example 10, N-(3-bromo-4-fluorophenyl)-N′-hydroxy-4-((3-(2-(sulfamoylamino)ethyl)cyclohexyl)amino)-1,2,5-oxadiazole-3-carboximidamide]
IC50 [2]: 0.059 µM | IC50 [1]: 0.052 µM

NS(=O)(=O)NC1CCC(Nc2nonc2C(=NO)Nc2ccc(F)c(Br)c2)C1 (centres unmarked) [Example 16]
IC50 [2]: 0.063 µM | IC50 [1]: 0.042 µM

NS(=O)(=O)NC1CCN(Nc2nonc2C(=NO)Nc2ccc(F)c(Br)c2)CC1 [Example 15, N-(3-bromo-4-fluorophenyl)-N′-hydroxy-4-((4-(sulfamoylamino)piperidin-1-yl)amino)-1,2,5-oxadiazole-3-carboximidamide]
IC50 [2]: 0.083 µM | IC50 [1]: 0.037 µM

NS(=O)(=O)NCC1CCC(Nc2nonc2C(=NO)Nc2ccc(F)c(Br)c2)C1 (centres unmarked) [Example 14, N-(3-bromo-4-fluorophenyl)-N′-hydroxy-4-((3-((sulfamoylamino)methyl)cyclopentyl)amino)-1,2,5-oxadiazole-3-carboximidamide]
IC50 [2]: 0.108 µM | IC50 [1]: 0.048 µM

N=C(Nc1ccc(F)c(Br)c1)c1nonc1NC1CCC(CCNS(N)(=O)=O)C1 (centres unmarked) [Compound 17]
inhibiting effect on IDO protease [1]: showed the inhibiting effect

NS(=O)(=O)NCC1CCC(CNc2nonc2C(=NO)Nc2ccc(F)c(Br)c2)CC1 (centres unmarked) [Example 5, N-(3-bromo-4-fluorophenyl)-N′-hydroxy-4-(((4-((sulfamoylamino)methyl)cyclohexyl)methyl)amino)-1,2,5-oxadiazole-3-carboximidamide]
IC50 [2]: 0.045 µM | IC50 [1]: 0.014 µM

NS(=O)(=O)N[C@H]1CC[C@H](Nc2nonc2C(=NO)Nc2ccc(F)c(Br)c2)CC1 [Example 18, trans-N-(3-bromo-4-fluorophenyl)-N′-hydroxy-4-(((1r,4r)-4-(sulfamoylamino)yclohexyl)amino)-1,2,5-oxadiazole-3-carboximidamide]
IC50 [2]: 0.006 µM | IC50 [1]: 0.003 µM
